# Key:
# Erk = test: p-Erk immunoblot of Ptpn11^D61G/+ hippocampi after lovastatin injection; assay type: in vivo, mice
# Method: (§1) FIG. 6 are graphs showing that Lovastatin treatment reverses spatial learning and memory and LTP deficits in Ptpn11^D61G/+ mice. […] Left, Representative immunoblot showing p-Erk (upper) and total Erk (lower) levels in Ptpn11^D61G/+ mice and WT. Hippocampi were dissected 6 hr after the 4th day of lovastatin injection (subcutaneous (s.c.) injections, 10 mg/kg). Right, Bar graph displaying normalized p-Erk levels (mean±s.e.m.). n=7-8 per group. t-test, *P<0.05. […] Two-way ANOVA followed by Bonferroni post-test, WT/Veh vs. Ptpn11^D61G/+/Veh, *P<0.05, **P<0.01; Ptpn11^D61G/+/Veh vs. Ptpn11^D61G/+/Lova, +P<0.05. […] Two-way ANOVA with genotype as between-subjects factor and drug treatment as within-subjects factor, effect of genotype: F(1, 45)=19.79, ***P<0.0001, interaction: F (1,45)=0.4489, P=0.506.
# As in AAV-PTPN11^D61G-infected mice, p-Erk levels were increased in Ptpn11^D61G/+ hippocampi (FIG. 6, panel a). […] Importantly, the spatial learning performance of lovastatin-treated Ptpn11^D61G/+ mice was indistinguishable from controls (FIG. 6, panels d, e).
# Dissected hippocampi were homogenized in protein lysis buffer (10 mM Tris-Cl pH 6.8, 1.6% SDS) containing protease and phosphatase inhibitor cocktails (Sigma). Supernatants were collected after centrifugation and the protein concentration was determined using a BCA assay kit (Thermo). […]
# Ptpn11^D61G/+ mice = test: Morris water maze (hidden platform) in Ptpn11^D61G/+ mice treated with lovastatin; assay type: in vivo
# Method: as §1
# SL327 (Tocris) was dissolved in DMSO (16 mg/ml) and was injected intraperitoneally once daily, 30 min before the water maze experiment at a dose of 32 mg/kg. The volume of a single injection was under 80 μl. Lovastatin (Mevinolin, Sigma) was prepared as previously described^21. Briefly, lovastatin was dissolved in ethanol (final concentration of 8%) and 1N NaOH was added to convert mevinolin to the sodium salt. The pH of the final solution (4 mg/ml) was adjusted to 7.5 with HCl. The Vehicle solution was prepared with the same procedure. Lovastatin was administered daily (subcutaneous injection, 10 mg/kg) for 3 days before the first training day of the water maze and 6 hr before training every day thereafter.
# In the hidden platform-version of Morris water maze, mice were trained with two blocks of 2 trials (ITI=1 min) spaced about 45 min apart. In each training trial, mice were released from a different starting position and then were allowed to search for the escape platform for 60 s. The platform was submerged 1 cm under the surface of the water. Once a mouse found the platform, it was left there for 15 s. […] Mice were trained for 5-7 consecutive days. Memory was assessed in probe trials that were given after completion of training as described in the main text. During the probe trial, the platform was removed and the mice were allowed to search for it for 60 s. Data were acquired and analyzed using WaterMaze software (Actimetrics).
# [1] = test system: hippocampal slices of Ptpn11^D61G/+ mice; test: 5 TBS-induced LTP in hippocampal slices after systemic administrations of lovastatin; assay type: in vivo
# Method: FIG. 6 are graphs showing that Lovastatin treatment reverses spatial learning and memory and LTP deficits in Ptpn11^D61G/+ mice. […] Left, Representative immunoblot showing p-Erk (upper) and total Erk (lower) levels in Ptpn11^D61G/+ mice and WT. Hippocampi were dissected 6 hr after the 4th day of lovastatin injection (subcutaneous (s.c.) injections, 10 mg/kg). Right, Bar graph displaying normalized p-Erk levels (mean±s.e.m.). n=7-8 per group. t-test, *P<0.05. […] Two-way ANOVA followed by Bonferroni post-test, WT/Veh vs. Ptpn11^D61G/+/Veh, *P<0.05, **P<0.01; Ptpn11^D61G/+/Veh vs. Ptpn11^D61G/+/Lova, +P<0.05. […]
# For extracellular recordings of field excitatory postsynaptic potentials (fEPSP), sagittal slices (400 μm) were prepared with a vibratome (VT1000S, Leica) in ice-cold artificial cerebrospinal fluid (ACSF). […] Recording was performed in a submerged chamber perfused with ACSF (32° C.). fEPSPs were recorded with platinum-iridium electrodes placed in the CA1 stratum radiatum. […] Baseline responses were measured with stimulation (0.017 Hz, 0.1 ms pulse duration) at an intensity (typically 20-30 μA) that evoked a response that was approximately one third of the maximum evoked response. […] Initial fEPSP slopes were measured and normalized to the average of baseline (Clampfit 10.2).
# Nf1^+/− mutant mice = conditions: previous study (ref. 21); cited from earlier work
# [2] = Ptpn11^D61G/+ mice, lovastatin 10 mg/kg s.c.
compound,measurement,setting,value
CC[C@H](C)C(=O)O[C@H]1C[C@@H](C)C=C2C=C[C@H](C)[C@H](CC[C@@H]3C[C@@H](O)CC(=O)O3)[C@H]21 [Lovastatin],normalized p-Erk levels in hippocampi,"Erk; Ptpn11^D61G/+ hippocampi, 6 hr after the 4th day of lovastatin s.c. 10 mg/kg",reverses increased Erk activation
same,Erk activation in hippocampi,"Erk; WT controls, lovastatin s.c. 10 mg/kg",did not affect Erk activation in controls
same,"proximity to the target platform, probe trial",Ptpn11^D61G/+ mice; [2],39.82±2.53 cm
same,"time in the target quadrant, probe trial",Ptpn11^D61G/+ mice; [2],45.70±4.43%
same,latency to the hidden platform during training sessions,"Ptpn11^D61G/+ mice; Ptpn11^D61G/+ mice, lovastatin 10 mg/kg s.c. daily",comparable latency to WT mice
same,"preference for the target quadrant, quadrant occupancy analysis","Ptpn11^D61G/+ mice; Ptpn11^D61G/+/Lova group, TQ vs. other quadrants",selectively searched for the target quadrant
same,any measure of learning in WT animals,"Ptpn11^D61G/+ mice; WT animals, lovastatin at the concentration used (10 mg/kg)",had no effect on any measure of learning
same,"proximity to the target platform, probe trial","Ptpn11^D61G/+ mice; WT mice, lovastatin 10 mg/kg s.c.",35.28±3.26 cm
same,"Average % fEPSP changes (last 10 minutes of recordings), 5 TBS-induced LTP",[1]; Ptpn11^D61G/+ mice,154.2±6.88%
same,"Average % fEPSP changes (last 10 minutes of recordings), 5 TBS-induced LTP",[1]; WT mice,150.7±5.49%
same,"spatial learning problems, attention deficits and pre-pulse inhibition deficits",Nf1^+/− mutant mice,can rescue
